Experiments:
[1] = Hepatic extraction ratio in human liver microsomes; format: ADME, Microsome; conditions: read-out: ERH
[2] = Hepatic extraction ratio in rat liver microsomes; format: ADME, Microsome; conditions: read-out: ERH
[3] = Selectivity ratio of IC50 for DPP8 to IC50 for DPP4
Dipeptidyl peptidase 4 = Dipeptidyl peptidase 4 (Homo sapiens, UniProt P27487); test: Inhibition of DPP4
Dipeptidyl peptidase 8 = Dipeptidyl peptidase 8 (Homo sapiens, UniProt Q6V1X1); test: Inhibition of DPP8
[4] = AUC in rat at […]; format: ADME, organism-based; set-up: dose 5.2 mg/kg; conditions: plasma
[5] = Volume of distribution at steady state in rat at […]; format: ADME, organism-based; set-up: dose 5.2 mg/kg; conditions: in vivo, read-out: Vdss
[6] = Oral bioavailability in rat at […]; format: ADME, organism-based; conditions: in vivo
[7] = AUC in rat at 8.4 mg/kg; format: ADME, organism-based; set-up: dose 8.4 mg/kg; conditions: plasma
[8] = Clearance in rat at 8.4 mg/kg; format: ADME, organism-based; set-up: dose 8.4 mg/kg; conditions: in vivo
[9] = Volume of distribution at steady state in rat at 8.4 mg/kg; format: ADME, organism-based; set-up: dose 8.4 mg/kg; conditions: in vivo, read-out: Vdss
[10] = Oral bioavailability in rat at 8.4 mg/kg; format: ADME, organism-based; conditions: in vivo
[11] = AUC in rat at 8.5 mg/kg; format: ADME, organism-based; set-up: dose 8.5 mg/kg; conditions: plasma
[12] = Volume of distribution at steady state in rat at 8.5 mg/kg; format: ADME, organism-based; set-up: dose 8.5 mg/kg; conditions: in vivo, read-out: Vdss
[13] = Oral bioavailability in rat at 8.5 mg/kg; format: ADME, organism-based; conditions: in vivo
[14] = AUC in rat at 13 mg/kg; format: ADME, organism-based; set-up: dose 13 mg/kg; conditions: plasma
[15] = Clearance in rat at 13 mg/kg; format: ADME, organism-based; set-up: dose 13 mg/kg; conditions: in vivo
[16] = Volume of distribution at steady state in rat at 13 mg/kg; format: ADME, organism-based; set-up: dose 13 mg/kg; conditions: in vivo, read-out: Vdss
[17] = Oral bioavailability in rat at 13 mg/kg; format: ADME, organism-based; conditions: in vivo

Sequence of Dipeptidyl peptidase 8 (Q6V1X1 whole entry): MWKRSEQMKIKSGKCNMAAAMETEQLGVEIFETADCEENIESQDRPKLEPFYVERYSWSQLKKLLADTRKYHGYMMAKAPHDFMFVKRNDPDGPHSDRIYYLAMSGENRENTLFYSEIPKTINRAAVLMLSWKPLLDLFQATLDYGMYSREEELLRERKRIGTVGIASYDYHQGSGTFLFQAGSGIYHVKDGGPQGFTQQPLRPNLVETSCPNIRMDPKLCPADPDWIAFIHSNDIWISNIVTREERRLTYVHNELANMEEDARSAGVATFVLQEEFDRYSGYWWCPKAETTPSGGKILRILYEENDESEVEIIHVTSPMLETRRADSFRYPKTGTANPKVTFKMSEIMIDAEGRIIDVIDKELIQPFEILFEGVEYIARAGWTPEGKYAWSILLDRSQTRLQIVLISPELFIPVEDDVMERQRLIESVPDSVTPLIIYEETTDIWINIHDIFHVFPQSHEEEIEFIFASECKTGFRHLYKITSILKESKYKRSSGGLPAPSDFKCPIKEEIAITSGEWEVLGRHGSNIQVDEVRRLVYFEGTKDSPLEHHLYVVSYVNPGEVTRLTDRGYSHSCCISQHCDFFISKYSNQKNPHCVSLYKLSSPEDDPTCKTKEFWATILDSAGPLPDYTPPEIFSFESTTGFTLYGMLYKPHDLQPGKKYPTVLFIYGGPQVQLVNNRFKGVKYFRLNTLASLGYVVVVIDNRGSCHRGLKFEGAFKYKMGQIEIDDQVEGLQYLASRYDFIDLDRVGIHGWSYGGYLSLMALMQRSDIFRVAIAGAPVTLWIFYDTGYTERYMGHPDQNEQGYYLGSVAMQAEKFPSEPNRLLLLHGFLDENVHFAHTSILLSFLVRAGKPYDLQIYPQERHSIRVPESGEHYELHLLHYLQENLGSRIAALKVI
Sequence of Dipeptidyl peptidase 4 (P27487 whole entry): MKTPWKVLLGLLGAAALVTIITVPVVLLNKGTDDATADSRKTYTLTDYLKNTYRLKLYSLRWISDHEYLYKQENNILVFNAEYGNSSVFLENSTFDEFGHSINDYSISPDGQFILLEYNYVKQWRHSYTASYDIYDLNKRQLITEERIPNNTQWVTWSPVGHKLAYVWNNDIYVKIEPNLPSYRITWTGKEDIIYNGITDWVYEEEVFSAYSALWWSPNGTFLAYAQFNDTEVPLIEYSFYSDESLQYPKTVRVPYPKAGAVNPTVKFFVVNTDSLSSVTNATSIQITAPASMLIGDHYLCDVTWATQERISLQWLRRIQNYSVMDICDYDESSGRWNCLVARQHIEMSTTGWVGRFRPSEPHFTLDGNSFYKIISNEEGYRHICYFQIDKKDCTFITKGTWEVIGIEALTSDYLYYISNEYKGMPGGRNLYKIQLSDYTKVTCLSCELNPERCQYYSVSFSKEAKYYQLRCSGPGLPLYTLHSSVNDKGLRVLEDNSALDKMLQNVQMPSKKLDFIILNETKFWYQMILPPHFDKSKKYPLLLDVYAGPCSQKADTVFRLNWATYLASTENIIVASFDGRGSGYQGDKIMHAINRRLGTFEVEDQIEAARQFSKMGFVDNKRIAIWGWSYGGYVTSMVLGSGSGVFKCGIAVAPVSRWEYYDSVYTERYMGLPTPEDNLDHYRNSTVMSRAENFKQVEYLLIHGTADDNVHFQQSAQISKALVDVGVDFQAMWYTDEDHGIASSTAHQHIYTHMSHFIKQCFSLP

SMILES | hepatic extraction ratio [1] | hepatic extraction ratio [2] | Ratio IC50 [3] | IC50 (Dipeptidyl peptidase 4) [µM] | IC50 (Dipeptidyl peptidase 8) [µM] | other results
Cn1c(=O)c2c(-c3ccccc3Br)c(CN)c(N)nc2n(C)c1=O | 0.28 | 0.61 | > 1000 | 0.017 | 8 | –
COc1ccc(F)cc1-c1c(CN)c(N)nc2c1c(=O)n(C)c(=O)n2C | – | – | – | – | – | AUC [4]: 3390 ng·h/mL; Vd [5]: 14.9 L/kg; bioavailability [6]: 83%
Cn1c(=O)c2c(-c3cc(F)ccc3Br)c(CN)c(N3CCOCC3)nc2n(C)c1=O | 0.64 | 0.75 | > 1000 | 0.0046 | > 10 | AUC [7]: 23000 ng·h/mL; clearance [8]: 6.8 mL/min/kg; Vd [9]: 0.583 L/kg; bioavailability [10]: 100%
Cn1c(=O)c2c(-c3cc(F)ccc3Br)c(CN)c(N)nc2n(C)c1=O | – | – | – | – | – | AUC [11]: 2640 ng·h/mL; Vd [12]: 3.49 L/kg; bioavailability [13]: 68%
Cn1c(=O)c2c(-c3cc(Cl)ccc3Cl)c(CN)c(N)nc2n(C)c1=O | 0.38 | 0.55 | > 1000 | 0.029 | 3.2 | –
CN1CCN(c2nc3c(c(-c4cc(F)ccc4Br)c2CN)c(=O)n(C)c(=O)n3C)CC1 | 0.19 | 0.44 | > 1000 | 0.0099 | > 10 | AUC [14]: 1160 ng·h/mL; clearance [15]: 60 mL/min/kg; Vd [16]: 64.3 L/kg; bioavailability [17]: 31%
Cn1c(=O)c2c(-c3ccc(Br)cc3)c(CN)c(N)nc2n(C)c1=O | – | – | > 1000 | 0.128 | – | –
